# Entries after “also recorded” stand apart in the source; their conditions may differ.
# How the values were obtained:
# SIRPα = target: T1, SIRPα (Homo sapiens, UniProt P78324); assay: CD47-Fc Inhibition Assay on THP-1 macrophages; assay type: binding; conditions: 1 μM or 50 μM peptide, 2 μg/mL CD47-Fc, anti-Fc fluorescence
# T1 construct: THP-1 monocytes were PMA differentiated in RPMI for 48 h; endogenous in cells; host or cells: PMA-differentiated THP-1 macrophages
# Method: CD47-Fc Inhibition Assay. THP-1 monocytes were PMA differentiated in RPMI for 48 h. The macrophages were washed with RPMI media and then incubated with 1 μM or 50 μM of nano- Self peptides for 1 h at 37° C., 5% CO2, and 95% humidity. After washing, the macrophages were incubated with Human Trustain FcX Fc receptor blocking solution (Biolegend) for 10 min at RT and then incubated with 2 μg/mL CD47-Fc fusion protein (ACRO Biosystems) for 1 h at 37° C., 5% CO2, and 95% humidity. As a negative control, B6H12 was pre-mixed with CD47-Fc at 4° C. on a rotator for 1 h. The macrophages were then washed and incubated with 0.5 μg/mL goat anti-human IgG Fc DyLight 488 (Thermo Fischer) for 1 h at 37° C., 5% CO2, and 95% humidity. Finally, the macrophages were washed, fixed, Hoechst 33342 stained, and imaged as described above.
# To determine whether the nS peptides bind to SIRPα, nS-FF and nS-F4 were used as soluble competitive inhibitors of saturable CD47-Fc fusion protein binding to macrophages (FIG. 20). Addition of multivalent nS peptides was followed by Fc-receptor blockade to minimize Fc-driven binding of construct. Afterwards, CD47-Fc was added and then finally anti-Fc fluorescence imaging was performed (FIG. 20, left).
# [1] = system: human macrophages (opsonized K562 cancer cells); assay: Phagocytosis of opsonized K562 erythroleukemia cells by human macrophages; assay type: cell-based
# Method: (§1) In vitro phagocytosis assay. Fresh human RBCs were washed twice with 50 mM EDTA (Thermo Fischer) in PBS (Gibco) then twice with 5% FBS in PBS. RBCs were opsonized with 20 μg/mL rabbit anti-human RBC antibody (Rockland) in 5% FBS for 1 hour at RT with shaking. For CD47 blocked RBCs, 5 μg/mL of mouse anti-human CD47 (B6H12; BD Biosciences) were added. Thereafter, RBCs were washed with PBS three times and stained with PKH26 dye (1:800 dilution in PBS; Sigma) for 1 hour at RT with shaking in the dark. RBCs were washed and resuspended in PBS.
# (§2) THP-1 monocytes were PMA differentiated in RPMI for 48 hours. Macrophages were then washed with RPMI media three times. For SIRPα blocked THP-1 macrophages, 20 nM, 1 μM or 50 μM of the nano—Self peptides were incubated with the THP-1 macrophages for 1 hour at 37 ° C., 5% CO2 and 95% humidity. Those THP-Is were then washed with RPMI three times.
# (§3) CO2 and 95% humidity. Macrophages were then washed with RPMI three times. Adherent and uninternalized RBCs were lysed with water for 30 seconds followed by immediate replacement with RPMI media. In order to distinguish remaining adherent RBCs from internalized RBCs, opsonized RBCs were stained with AlexaFluor 647 donkey anti-rabbit (binds to rabbit polyclonal opsonin on RBC; Invitrogen) IgG (1:1000) while unopsonized, CD47 blocked RBCs were stained with AlexaFluor 647 donkey anti-mouse (binds to mouse monoclonal anti-CD47 on RBCs; Invitrogen) IgG (1:1000) for 30 minutes. After washing, macrophages were fixed with 4% formaldehyde for 15 minutes at RT, washed with PBS, stained with 1 μg/mL Hoechst 33342, and then washed with PBS again. Fluorescence imaging was performed as described elsewhere herein and quantification was done using ImageJ. At least 200 cells were analyzed and experiments were repeated at least three times.
# The anti-RBC successfully opsonized and triggered phagocytosis of K562 cells by macrophages (FIGS. 2A, 2F and 2E). […] Interaction of the nS peptides with K562 cells is likely minimal due to the relative lack of SIRPα expression. […] For both opsonized RBCs and opsonized K562s (FIGS. 2D, 2F), the hyperphagocytosis that is achieved with soluble F- and V-nS peptides matches the recently measured increases for disruption of both (i) the trans interactions between CD47 on a target and macrophage SIRPα and also, importantly, (ii) the cis interactions between CD47 and SIRPα on the same macrophage (FIG. 2G-left). Expression profiling of macrophages confirms these cells generally express CD47 at roughly similar levels to other cell types (FIG. 15). […] A preliminary conclusion is that nS-FF and the other substituted peptides, which were designed to bind SIRPα, inhibit both the cis and trans interactions between SIRPα and CD47 ([…]).
# human THP-1 macrophages = assay: In vitro phagocytosis assay: opsonized human RBCs engulfed by peptide-treated THP-1 macrophages; assay type: cell-based
# Method: as §1, §2, §3
# THP-1 macrophages = assay: Peptide inhibition assay (competition with FAM-labeled nS-F on THP-1 macrophages); assay type: binding, human; conditions: pre-treatment with unlabeled peptide
# Method: Peptide inhibition assay. THP-1 monocytes were PMA differentiated in RPMI for 48 hours. […] To measure background internalization of the FAM-labeled peptides, nS-X-FAM was used. To determine the efficacy of the bivalent peptides to inhibit SIRPα binding, nS-X was used. Excess peptides were washed off with PBS and cells were fixed with 4% formaldehyde for 15 minutes at RT, washed with PBS, stained with 1 μg/mL Hoechst 33342, and then washed with PBS again. Fluorescence imaging was performed as described elsewhere herein and quantification was done using ImageJ.
# [2] = system: mouse bone marrow derived macrophages (BMDMs); assay: Phagocytosis of anti-TYRP1 opsonized B16F10 melanoma cells by mouse bone marrow derived macrophages; assay type: cell-based; conditions: 50 μM peptide
# Method: B16F10 cells: Bone marrow cells were isolated from femurs and tibias of healthy C57BL6/J mice (The Jackson Laboratory) and cultured in 10-cm petri dishes containing IMDM (Gibco) supplemented with 10% v/v FBS, 1% v/v penicillin/streptomycin, and 1:10,000 macrophage colony stimulating factor cytokine (M-CSF; Biolegend) for 7 days at 37° C., 5% CO2 and 95% humidity. All animal experiments were performed according to protocols approved by the University of Pennsylvania's IACUC (protocol #805977 and #804455). The resulting mouse bone marrow derived macrophages (BMDMs) were washed with PBS containing Ca2^+/Mg2^+ (Gibco) then detached with 0.25% trypsin-EDTA (Gibco) and re-plated in 6-well tissue culture plates using IMDM+M-CSF for 24 hours.
# Mouse melanoma B16F10 cells were washed with PBS containing Ca2-/Mg2- and then trypsinized with 0.05% trypsin-EDTA. After washing twice with PBS, the cells were labeled with 1:10,000 CFDA—SE (Thermo Fisher) in PBS for 10 minutes. B16F10 cells were opsonized with 10 μg/mL anti-TYRP1 (TA99; Bio X Cell) in PBS for 2 hours at 4° C.with occasional inverting. For CD47 blocked B16F10 cells, 5 μg/mL of […] were added. During the incubation time, the BMDMs were washed with media then stained with 1:2,000 CellTracker Deep Red (Thermo Fisher) in PBS with Ca2^+/Mg2^+ for 10 min. After washing, 50 μM of the nano—Self peptides were incubated with the BMDMs for 1 hour at 37° C., 5% CO2 and 95% humidity. Finally, BMDMs were washed twice with PBS and then twice with serum-free IMDM.
# Without removing the supernatant, the opsonized melanoma cells were added to the labeled BMDMs at a ratio of 2:1 for 2 hours at 37° C., 5% CO2 and 95% humidity. During the last 15 minutes of the assay, the cells were Hoechst stained. The wells were washed with serum free IMDM then fixed with 4% formaldehyde for 15 minutes at RT, and PBS washed. Fluorescence imaging was performed using an Olympus IX71 with a digital EMCCD camera (Cascade 512B) and a 40×/0.6 NA objective. Quantification was done with ImageJ (NIH). At least 200 cells were analyzed and two-tailed student's t-test was used to determine statistical significance.
Substance,level of inhibition of CD47-Fc binding (SIRPα),increase of phagocytosis relative to opsonized and CD47 blocked K562 cells ([1]; saturating peptide),macrophages engulfing opsonized K562 cells at saturation ([1]; saturation),effect on phagocytosis of opsonized RBCs (words) (human THP-1 macrophages; 20 nM peptide),inhibition of monovalent nS-F-FAM binding to macrophages (THP-1 macrophages),effect on phagocytosis of opsonized K562 cells [1],effect on phagocytosis of opsonized RBCs (words) (human THP-1 macrophages; saturating / 50 μM peptide),effect on phagocytosis of opsonized WT and SIRPα KO B16 cells [2],increase of macrophage phagocytosis relative to nS-wt (human THP-1 macrophages; saturating peptide)
((VTELFREG-PEG5)2-K)2-K [nS-F4],as inhibitory as anti-CD47,nearly doubled; also recorded: about two-fold,~40%,more potent in enhancing phagocytosis,more potent in inhibiting monovalent nS-F-fluor association with macrophages than bivalent nS-FF,,,,
"(LETVEGTR-PEG5)2-K (LETVEGTRKRTGEVTEL; bivalent, PEG5 linkers, lysine core; nS-XX; (8)..(9) 5x PEG linker between residues; (9)..(10) 5x PEG linker between residues) [bivalent scrambled control]",0,,,,,unaffected; also recorded: only opsonization effect observed,unaffected; also recorded: do not affect baseline engulfment of opsonized RBCs; also recorded: do not have effects on phagocytosis,,
"(VTELVREG-PEG5)2-K (VTELVREGKGERVLETV; bivalent, PEG5 linkers, lysine core; nS-VV; (8)..(9) 5x PEG linker between residues; (9)..(10) 5x PEG linker between residues) [bivalent nS-V]",,,,successful in activating THP-1 to engulf opRBCs,further decreased,,activity profiles in phagocytosis assays that are similar to the monovalent nS-F,,
"CVTELFREGC (HELM PEPTIDE1{C.V.T.E.L.F.R.E.G.C.[am]}$PEPTIDE1,PEPTIDE1,1:R3-10:R3$$$V2.0; N-terminus assumed; SMILES CC(C)C[C@@H]1NC(=O)[C@H](CCC(=O)O)NC(=O)[C@H]([C@@H](C)O)NC(=O)[C@H](C(C)C)NC(=O)[C@@H](N)CSSC[C@@H](C(N)=O)NC(=O)CNC(=O)[C@H](CCC(=O)O)NC(=O)[C@H](CCCNC(=N)N)NC(=O)[C@H](Cc2ccccc2)NC1=O) [nS-F-Cyc, cyclic variant of nS-F]",,,,,,,Maximum levels of phagocytic macrophages,Maximum levels of phagocytic macrophages,roughly 25%
